Structures can show the parent of a compound that is named as a salt.
What follows are compounds tested on Acinetobacter baumannii ATCC17978 (assay: Antimicrobial susceptibility testing: 90% growth inhibitory concentration (IC90) determination, Iso-Sensitest broth). Settings: 90% growth inhibitory concentration, Acinetobacter baumannii ATCC17978, Iso-Sensitest broth; read-out: ATCC 17978 IC90.
Type: cell-based
In short: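 Growth at OD600 was monitored every 20 min for 16 h at 35±2 °C, with bacteria inoculated at ~5×10^(5) CFU/ml into Iso-Sensitest medium. Compounds were tested as 10-point twofold dilutions (e.g. 10–0.02 μM final). The 90% inhibitory concentration comes from the log-phase growth.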

| SMILES | IC90 [nM] |
| --- | --- |
| COc1ccc(-c2cnc(C(=O)Nc3ccc(C(=O)N4CCN(C(=O)[C@@H]5C[C@H](O)CN5)CC4)c(Cl)c3)n2C)c(F)c1F [Example 107, N-[3-chloro-4-[4-[(2S,4S)-4-hydroxypyrrolidine-2-carbonyl]piperazine-1-carbonyl]phenyl]-5-(2,3-difluoro-4-methoxy-phenyl)-1-methyl-imidazole-2-carboxamide trifluoroacetate] | 80 |
| COc1ccc(-c2cnc(C(=O)Nc3ccc(C(=O)N4CCN(C(=O)C5(O)CCNCC5)CC4)c(Cl)c3)n2C)c(Cl)c1F [Example 113, 5-(2-chloro-3-fluoro-4-methoxy-phenyl)-N-[3-chloro-4-[4-(4-hydroxypiperidine-4-carbonyl)piperazine-1-carbonyl]phenyl]-1-methyl-imidazole-2-carboxamide formate] | 80 |
| COc1ccc(-c2cnc(C(=O)Nc3ccc(C(=O)N4CCN(C(=O)[C@@H]5C[C@H](O)CN5)CC4)c(Cl)c3)n2C)c(Cl)c1F [Example 114, 5-(2-chloro-3-fluoro-4-methoxy-phenyl)-N-[3-chloro-4-[4-[(2S,4S)-4-hydroxypyrrolidine-2-carbonyl]piperazine-1-carbonyl]phenyl]-1-methyl-imidazole-2-carboxamide formate] | 110 |
| COc1ccc(-c2cnc(C(=O)Nc3ccc(C(=O)N4CCN(C(=O)[C@H]5C[C@@H](O)CN5)CC4)c(Cl)c3)n2C)c(Cl)c1F [Example 115, 5-(2-chloro-3-fluoro-4-methoxy-phenyl)-N-[3-chloro-4-[4-[(2R,4R)-4-hydroxypyrrolidine-2-carbonyl]piperazine-1-carbonyl]phenyl]-1-methyl-imidazole-2-carboxamide formate] | 140 |
| COc1ccc(-c2cnc(C(=O)Nc3ccc(C(=O)N4CCC(C(=O)N5CCN[C@@H](CO)C5)CC4)c(Cl)c3)n2C)c(Cl)c1F [Example 116, 5-(2-chloro-3-fluoro-4-methoxy-phenyl)-N-[3-chloro-4-[4-[(3R)-3-(hydroxymethyl)piperazine-1-carbonyl]piperidine-1-carbonyl]phenyl]-1-methyl-imidazole-2-carboxamide] | 130 |
| COc1ccc(-c2cnc(C(=O)Nc3ccc(C(=O)N4CCN(C(=O)C5CCNCC5)CC4)c(C)c3)n2C)c(Cl)c1F [Example 117, 5-(2-chloro-3-fluoro-4-methoxy-phenyl)-1-methyl-N-[3-methyl-4-[4-(piperidine-4-carbonyl)piperazine-1-carbonyl]phenyl]imidazole-2-carboxamide formate] | 150 |
| Cn1c(-c2ccc(OCC#N)c(F)c2F)cnc1C(=O)Nc1ccc(C(=O)N2CCN(C(=O)C3CCNCC3)CC2)c(Cl)c1 [Example 196, N-(3-chloro-4-(4-(piperidine-4-carbonyl)piperazine-1-carbonyl)phenyl)-5-(4-(cyanomethoxy)-2,3-difluorophenyl)-1-methyl 1H-imidazole-2-carboxamide formate] | 70 |
| Cn1c(-c2ccc(OCC#N)c(F)c2F)cnc1C(=O)Nc1ccc(C(=O)N2CCN(C(=O)[C@@H]3CCCN3)CC2)c(Cl)c1 [Example 198, (S)-N-(3-chloro-4-(4-prolylpiperazine-1-carbonyl)phenyl)-5-(4-(cyanomethoxy)-2,3-difluorophenyl)-1-methyl-1H-imidazole-2-carboxamide 2,2,2-trifluoroacetate] | 30 |
| Cn1c(-c2ccc(OCC#N)c(F)c2F)cnc1C(=O)Nc1ccc(C(=O)N2CCN(C(=O)[C@@H]3CCNC3)CC2)c(Cl)c1 [Example 199, (R)-N-(3-chloro-4-(4-(pyrrolidine-3-carbonyl)piperazine-1-carbonyl)phenyl)-5-(4-(cyanomethoxy)-2,3-difluorophenyl)-1-methyl-1H-imidazole-2-carboxamide 2,2,2-trifluoroacetate] | 40 |
| Cn1c(-c2ccc(OCC#N)c(F)c2F)cnc1C(=O)Nc1ccc(C(=O)N2CCN(C(=O)[C@@H]3C[C@H](O)CN3)CC2)c(Cl)c1 [Example 201, N-(3-chloro-4-(4-((2S,4S)-4-hydroxypyrrolidine-2-carbonyl)piperazine-1-carbonyl)phenyl)-5-(4-(cyanomethoxy)-2,3-difluorophenyl)-1-methyl-1H-imidazole-2-carboxamide formate] | 50 |
| Cn1c(-c2ccc(OCC#N)c(F)c2F)cnc1C(=O)Nc1ccc(C(=O)N2CCN(C(=O)[C@@H]3C[C@@H](O)CN3)CC2)c(Cl)c1 [Example 202, N-(3-chloro-4-(4-((2S,4R)-4-hydroxypyrrolidine-2-carbonyl)piperazine-1-carbonyl)phenyl)-5-(4-(cyanomethoxy)-2,3-difluorophenyl)-1-methyl-1H-imidazole-2-carboxamide 2,2,2-trifluoroacetate] | 90 |
| Cc1cc(NC(=O)c2ncc(-c3ccc(OCC#N)c(F)c3F)n2C)ccc1C(=O)N1CCN(C(=O)[C@@H]2CCNC2)CC1 [Example 203, (R)-5-(4-(cyanomethoxy)-2,3-difluorophenyl)-1-methyl-N-(3-methyl-4-(4-(pyrrolidine-3-carbonyl)piperazine-1-carbonyl)phenyl)-1H-imidazole-2-carboxamide 2,2,2-trifluoroacetate] | 90 |
| CN(C)CC(=O)N1CCN(C(=O)c2ccc(NC(=O)c3ncc(-c4ccc(OCC#N)c(F)c4F)n3C)cc2Cl)CC1 [Example 204, N-(3-chloro-4-(4-(dimethylglycyl)piperazine-1-carbonyl)phenyl)-5-(4-(cyanomethoxy)-2,3-difluorophenyl)-1-methyl-1H-imidazole-2-carboxamide formate] | 40 |
| CNCC(=O)N1CCN(C(=O)c2ccc(NC(=O)c3ncc(-c4ccc(OCC#N)c(F)c4F)n3C)cc2Cl)CC1 [Example 205, N-(3-chloro-4-(4-(methylglycyl)piperazine-1-carbonyl)phenyl)-5-(4-(cyanomethoxy)-2,3-difluorophenyl)-1-methyl-1H-imidazole-2-carboxamide formate] | 60 |
| CNCC(=O)N1CCN(C(=O)c2ccc(NC(=O)c3ncc(-c4ccc(OCC#N)c(F)c4F)n3C)cc2C)CC1 [Example 206, 5-(4-(cyanomethoxy)-2,3-difluorophenyl)-1-methyl-N-(3-methyl-4-(4-(methylglycyl)piperazine-1-carbonyl)phenyl)-1H-imidazole-2-carboxamide 2,2,2-trifluoroacetate] | 100 |
| Cn1c(-c2ccc(OCC#N)c(F)c2F)cnc1C(=O)Nc1ccc(C(=O)N2CCN(C(=O)C3(O)CCNCC3)CC2)c(Cl)c1 [Example 207, N-(3-chloro-4-(4-(4-hydroxypiperidine-4-carbonyl)piperazine-1-carbonyl)phenyl)-5-(4-(cyanomethoxy)-2,3-difluorophenyl)-1-methyl-1H-imidazole-2-carboxamide 2,2,2-trifluoroacetate] | 50 |
| CN(C)CCN1CCN(C(=O)c2ccc(NC(=O)c3ncc(-c4ccc(OCC#N)c(F)c4Cl)n3C)cc2Cl)CC1 [Example 270, 5-[2-chloro-4-(cyanomethoxy)-3-fluoro-phenyl]-N-[3-chloro-4-[4-[2-(dimethylamino)ethyl]piperazine-1-carbonyl]phenyl]-1-methyl-imidazole-2-carboxamide] | 50 |
| COc1ccc(-c2cnc(C(=O)Nc3ccc(C(=O)N4CCN(CCN(C)C)CC4)c(Cl)c3)n2C)cc1F [Example 274, N-[3-chloro-4-[4-[2-(dimethylamino)ethyl]piperazine-1-carbonyl]phenyl]-5-(3-fluoro-4-methoxy-phenyl)-1-methyl-imidazole-2-carboxamide formate] | 290 |
| CCc1cc(NC(=O)c2ncc(-c3ccc(OC(F)F)cc3)n2C)ccc1C(=O)N1CCN(CCN(C)C)CC1 [Example 275, 5-[4-(difluoromethoxy)phen-yl]-N-[4-[4-[2-(dimethylamino)ethyl]piperazine-1-carbonyl]-3-ethyl-phenyl]-1-methyl-imidazole-2-carboxamide] | 1520 |
| CCc1cc(NC(=O)c2ncc(-c3ccc(OC(C)C)c(F)c3)n2C)ccc1C(=O)N1CCN(CCN(C)C)CC1 [Example 276, N-(4-(4-(2-(dimethylamino)ethyl)piperazine-1-carbonyl)-3-ethylphenyl)-5-(3-fluoro-4-isopropoxyphenyl)-1-methyl-1H-imidazole-2-carboxamide] | 4020 |
| CCc1cc(NC(=O)c2ncc(-c3ccc(OC)cc3Cl)n2C)ccc1C(=O)N1CCN(CCN(C)C)CC1 [Example 277, 5-(2-chloro-4-methoxyphenyl)-N-(4-(4-(2-(dimethylamino)ethyl)piperazine-1-carbonyl)-3-ethylphenyl)-1-methyl-1H-imidazole-2-carboxamide] | 2300 |

Same assay, conditions: Acinetobacter baumannii, ATCC17978, read-out: ATCC 17978 IC90

| SMILES | IC90 [nM] |
| --- | --- |
| Cn1c(-c2ccc(OCC#N)c(F)c2F)cnc1C(=O)Nc1ccc(C(=O)N2CCN(C(=O)[C@H]3CCCN3)CC2)c(Cl)c1 [Example 197, (R)-N-(3-chloro-4-(4-prolylpiperazine-1-carbonyl)phenyl)-5-(4-(cyanomethoxy)-2,3-difluorophenyl)-1-methyl 1H-imidazole-2-carboxamide 2,2,2-trifluoroacetate] | 70 |
| Cn1c(-c2ccc(OCC#N)c(F)c2F)cnc1C(=O)Nc1ccc(C(=O)N2CCN(C(=O)[C@H]3CCNC3)CC2)c(Cl)c1 [Example 200, (S)-N-(3-chloro-4-(4-(pyrrolidine-3-carbonyl)piperazine-1-carbonyl)phenyl)-5-(4-(cyanomethoxy)-2,3-difluorophenyl)-1-methyl 1H-imidazole-2-carboxamide 2,2,2-trifluoroacetate] | 50 |
| CN(C)CCN1CCN(C(=O)c2ccc(NC(=O)c3ncc(-c4ccc(OCC#N)c(Cl)c4)n3C)cc2Cl)CC1 [Example 269, 5-[3-Chloro-4-(cyanomethoxy)phenyl]-N-[3-chloro-4-[4-[2-(dimethylamino)ethyl]piperazine-1-carbonyl]phenyl]-1-methyl-imidazole-2-carboxamide trifluoroacetate] | 70 |

Source: patent US20220396565A1 (Hoffmann-La Roche Inc., priority 2020, published 2022)
